{"source": "patent US20040115749A1", "about": "“Cardiovascular disease and thrombotic risk diagnostic tests” (priority 2001, published 2004)", "origin": "cited, not measured here", "test_system": "ELISA kit for 13(S)-HODE (anti-13(S)-HODE specific antibody)", "details": "commercial ELISA kit for 13(S)-HODE", "data": [{"smiles": "CCCCC[C@@H](O)/C=C/C=C\\CCCCCCCC(=O)O", "note": "[13(R)-HODE]", "values": [{"measurement": "cross-reactivity", "value": 10, "unit": "%"}]}]}
